Experimental data reported in patent publication US12390451B2, “Small molecule inhibitor of the JAK family of kinases” (Janssen Pharmaceutica NV, priority 2021, dated 2025).
Like-named read-outs stand apart in the source and are kept apart here.

Key:
[1] = Tissue distribution in rats after oral administration; type: in vivo, male Sprague-Dawley rats; conditions: PO 25 mg/kg; for concentration at 0.5 h / concentration at 1 h / concentration at 2 h / concentration at 3 h / concentration at 5 h / concentration at 7 h / concentration at 24 h: male, Sprague-Dawley, rat
Method: Preliminary tissue distribution studies were conducted in male Sprague-Dawley rats (N=3/time point) at 0.5, 1, 2, 3, 5, 7, and 24 hours following oral administration of compound of Formula I at a dose of 25 mg/kg. The following tissues were harvested for compound concentration analysis: liver, kidney, brain, muscle, epididymis fat, duodenum, jejunum, ileum, colon (both lumen content and tissue), and plasma. The results of this study indicated low systemic exposure and high local concentrations (intestinal tract).

JAK2/JAK2 = target: T1, JAK2/JAK2 (Homo sapiens, UniProt O60674); assay: TPO-induced pSTAT-3 in human whole blood; type: cell-based; conditions: mean
T1 construct: endogenous in cells; host or cells: human whole blood
T1 sequence (O60674 whole entry): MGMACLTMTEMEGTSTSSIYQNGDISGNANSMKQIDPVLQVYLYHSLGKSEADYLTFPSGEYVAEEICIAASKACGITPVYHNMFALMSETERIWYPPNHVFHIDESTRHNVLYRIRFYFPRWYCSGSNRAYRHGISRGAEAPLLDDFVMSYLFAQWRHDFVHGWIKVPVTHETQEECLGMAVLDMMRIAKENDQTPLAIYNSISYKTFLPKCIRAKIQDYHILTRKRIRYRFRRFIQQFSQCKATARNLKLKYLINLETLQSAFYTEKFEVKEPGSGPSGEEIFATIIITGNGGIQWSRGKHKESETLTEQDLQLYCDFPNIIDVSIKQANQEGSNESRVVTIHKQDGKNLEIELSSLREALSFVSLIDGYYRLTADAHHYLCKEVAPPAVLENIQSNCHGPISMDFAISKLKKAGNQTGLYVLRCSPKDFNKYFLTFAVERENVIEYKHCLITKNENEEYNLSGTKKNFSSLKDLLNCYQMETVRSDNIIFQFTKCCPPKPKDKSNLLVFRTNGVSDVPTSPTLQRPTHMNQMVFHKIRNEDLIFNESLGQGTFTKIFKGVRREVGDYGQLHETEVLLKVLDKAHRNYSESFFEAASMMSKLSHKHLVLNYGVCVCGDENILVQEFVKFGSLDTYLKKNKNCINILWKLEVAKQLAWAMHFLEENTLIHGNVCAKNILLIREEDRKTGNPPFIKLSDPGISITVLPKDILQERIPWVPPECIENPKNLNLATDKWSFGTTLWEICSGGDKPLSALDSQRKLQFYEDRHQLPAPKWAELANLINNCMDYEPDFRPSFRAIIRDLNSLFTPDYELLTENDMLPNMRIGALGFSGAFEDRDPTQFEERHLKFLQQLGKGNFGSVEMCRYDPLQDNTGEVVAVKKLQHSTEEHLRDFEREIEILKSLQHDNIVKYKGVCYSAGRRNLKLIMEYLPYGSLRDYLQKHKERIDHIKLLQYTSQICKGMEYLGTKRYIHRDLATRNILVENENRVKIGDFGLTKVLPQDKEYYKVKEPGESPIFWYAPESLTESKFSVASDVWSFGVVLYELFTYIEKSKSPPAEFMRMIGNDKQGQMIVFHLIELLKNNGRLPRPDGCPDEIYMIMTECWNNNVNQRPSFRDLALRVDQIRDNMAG
T1 sequence (P40238 26-635 partner): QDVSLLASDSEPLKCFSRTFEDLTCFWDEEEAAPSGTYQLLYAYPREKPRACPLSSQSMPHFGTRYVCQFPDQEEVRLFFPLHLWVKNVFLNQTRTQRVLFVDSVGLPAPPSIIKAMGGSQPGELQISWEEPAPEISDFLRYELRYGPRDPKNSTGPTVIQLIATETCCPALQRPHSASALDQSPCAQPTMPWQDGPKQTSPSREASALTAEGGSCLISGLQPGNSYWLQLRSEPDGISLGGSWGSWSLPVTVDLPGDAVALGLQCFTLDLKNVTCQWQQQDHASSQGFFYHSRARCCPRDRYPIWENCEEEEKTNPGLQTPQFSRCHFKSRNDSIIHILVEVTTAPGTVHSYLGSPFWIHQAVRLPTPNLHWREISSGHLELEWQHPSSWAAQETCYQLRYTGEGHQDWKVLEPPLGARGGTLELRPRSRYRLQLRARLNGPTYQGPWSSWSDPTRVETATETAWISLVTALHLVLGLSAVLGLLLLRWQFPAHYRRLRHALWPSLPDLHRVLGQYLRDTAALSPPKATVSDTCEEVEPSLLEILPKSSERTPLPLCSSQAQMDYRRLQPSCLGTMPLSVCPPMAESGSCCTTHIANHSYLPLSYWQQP
Method: Compound of Formula I presents low levels of systemic exposure after oral administration. To understand the relationship between systemic exposure and target engagement in human studies, the inhibition of cytokine-induced pSTAT-3 in human whole blood was measured with such compound. In human whole blood, compound of Formula I in a concentration-dependent manner inhibited the JAK1, JAK2, JAK3, and Tyk2 homo- and heterodimers downstream of IFNα (JAK1/Tyk2), thrombopoietin (TPO) (JAK2/JAK2), and IL-21 (JAK1/JAK3) signaling.

[2] = 1 h, BLOQ 0.5 ng/mL of tissue homogenate
[3] = 2 h, BLOQ 0.5 ng/mL of tissue homogenate
[4] = 3 h, BLOQ 0.5 ng/mL of tissue homogenate
[5] = 5 h, BLOQ 0.5 ng/mL of tissue homogenate
[6] = 24 h, BLOQ 0.5 ng/mL of tissue homogenate

## CC(C)(O)CNC(=O)Cc1nc2cnc3[nH]ccc3c2n1[C@H]1CC[C@H](CC#N)CC1 [Compound of Formula I, 2-(1-((1r,4r)-4-(Cyanomethyl)cyclohexyl)-1,6-dihydroimidazo[4,5-d]pyrrolo[2,3-b]pyridin-2-yl)-N-(2-hydroxy-2-methylpropyl)acetamide]
[1]; [2]
  Brain concentration: BLOQ^(a)
  Fat concentration: BLOQ^(a)
[1]; 1 h, SD NA
  Kidney concentration: 42.2 ng/g
  Plasma concentration: 5.8 ng/mL
[1]; [3]
  Brain concentration: BLOQ^(a)
  Fat concentration: BLOQ^(a)
  Muscle concentration: BLOQ^(a)
[1]; [4]
  Brain concentration: BLOQ^(a)
  Muscle concentration: BLOQ^(a)
[1]; 3 h, average, N = 3
  Ileum Content concentration: 1,402,241 ng/mL
[1]; [5]
  Brain concentration: BLOQ^(a)
  Fat concentration: BLOQ^(a)
  Muscle concentration: BLOQ^(a)
[1]; 7 h, BLOQ 0.5 ng/mL of tissue homogenate
  Brain concentration: BLOQ^(a)
[1]; 24 h, BLOQ 0.5 ng/mL
  Plasma concentration: BLOQ^(a)
[1]; [6]
  Brain concentration: BLOQ^(a)
  Fat concentration: BLOQ^(a)
  Kidney concentration: BLOQ^(a)
  Muscle concentration: BLOQ^(a)
[1]; brain, average ±SD, read-out: Brain concentration
  concentration at 0.5 h: 3.5 ± 3.1 ng/g
[1]; colon lumen content, average, N = 3, read-out: Colon Content concentration
  concentration at 0.5 h: 167 ng/mL
[1]; colon lumen content, 1 h, average, N = 3, read-out: Colon Content concentration
  concentration at 1 h: 135 ng/mL
[1]; colon lumen content, 2 h, average, N = 3, read-out: Colon Content concentration
  concentration at 2 h: 19100 ng/mL
[1]; colon lumen content, 3 h, average, N = 3, read-out: Colon Content concentration
  concentration at 3 h: 304000 ng/mL
[1]; colon lumen content, 5 h, average, N = 3, read-out: Colon Content concentration
  concentration at 5 h: 830000 ng/mL
[1]; colon lumen content, 7 h, average, N = 3, read-out: Colon Content concentration
  concentration at 7 h: 834000 ng/mL
[1]; colon lumen content, 24 h, average, N = 3, read-out: Colon Content concentration
  concentration at 24 h: 7590 ng/mL
[1]; colon tissue, average, N = 3, read-out: Colon Tissue concentration
  concentration at 0.5 h: 946 ng/g
[1]; colon tissue, 1 h, average, N = 3, read-out: Colon Tissue concentration
  concentration at 1 h: 383 ng/g
[1]; colon tissue, 2 h, average, N = 3, read-out: Colon Tissue concentration
  concentration at 2 h: 2190 ng/g
[1]; colon tissue, 3 h, average, N = 3, read-out: Colon Tissue concentration
  concentration at 3 h: 12400 ng/g
[1]; colon tissue, 5 h, average, N = 3, read-out: Colon Tissue concentration
  concentration at 5 h: 33500 ng/g
[1]; colon tissue, 7 h, average, N = 3, read-out: Colon Tissue concentration
  concentration at 7 h: 36700 ng/g
[1]; colon tissue, 24 h, average, N = 3, read-out: Colon Tissue concentration
  concentration at 24 h: 353 ng/g
[1]; duodenum lumen content, average, N = 3, read-out: Duod. Content concentration
  concentration at 0.5 h: 329000 ng/mL
[1]; duodenum lumen content, 1 h, average, N = 3, read-out: Duod. Content concentration
  concentration at 1 h: 45500 ng/mL
[1]; duodenum lumen content, 2 h, average, N = 3, read-out: Duod. Content concentration
  concentration at 2 h: 20200 ng/mL
[1]; duodenum lumen content, 3 h, average, N = 3, read-out: Duod. Content concentration
  concentration at 3 h: 15800 ng/mL
[1]; duodenum lumen content, 5 h, average, N = 3, read-out: Duod. Content concentration
  concentration at 5 h: 4470 ng/mL
[1]; duodenum lumen content, 7 h, average, N = 3, read-out: Duod. Content concentration
  concentration at 7 h: 2630 ng/mL
[1]; duodenum lumen content, 24 h, average, N = 3, read-out: Duod. Content concentration
  concentration at 24 h: 60 ng/mL
[1]; duodenum tissue, average, N = 3, read-out: Duod. Tissue concentration
  concentration at 0.5 h: 35200 ng/g
[1]; duodenum tissue, 1 h, average, N = 3, read-out: Duod. Tissue concentration
  concentration at 1 h: 16700 ng/g
[1]; duodenum tissue, 2 h, average, N = 3, read-out: Duod. Tissue concentration
  concentration at 2 h: 3170 ng/g
[1]; duodenum tissue, 3 h, average, N = 3, read-out: Duod. Tissue concentration
  concentration at 3 h: 3840 ng/g
[1]; duodenum tissue, 5 h, average, N = 3, read-out: Duod. Tissue concentration
  concentration at 5 h: 1100 ng/g
[1]; duodenum tissue, 7 h, average, N = 3, read-out: Duod. Tissue concentration
  concentration at 7 h: 366 ng/g
[1]; duodenum tissue, 24 h, average, N = 3, read-out: Duod. Tissue concentration
  concentration at 24 h: 17 ng/g
[1]; ileum lumen content, average, N = 3, read-out: Ileum Content concentration
  concentration at 0.5 h: 644 ng/mL
[1]; ileum lumen content, 1 h, average, N = 3, read-out: Ileum Content concentration
  concentration at 1 h: 496 ng/mL
[1]; ileum lumen content, 2 h, average, N = 3, read-out: Ileum Content concentration
  concentration at 2 h: 725000 ng/mL
[1]; ileum lumen content, 5 h, average, N = 3, read-out: Ileum Content concentration
  concentration at 5 h: 597000 ng/mL
[1]; ileum lumen content, 7 h, average, N = 3, read-out: Ileum Content concentration
  concentration at 7 h: 133000 ng/mL
[1]; ileum lumen content, 24 h, average, N = 3, read-out: Ileum Content concentration
  concentration at 24 h: 893 ng/mL
[1]; ileum tissue, average, N = 3, read-out: Ileum Tissue concentration
  concentration at 0.5 h: 1340 ng/g
[1]; ileum tissue, 1 h, average, N = 3, read-out: Ileum Tissue concentration
  concentration at 1 h: 252 ng/g
[1]; ileum tissue, 2 h, average, N = 3, read-out: Ileum Tissue concentration
  concentration at 2 h: 8950 ng/g
[1]; ileum tissue, 3 h, average, N = 3, read-out: Ileum Tissue concentration
  concentration at 3 h: 50800 ng/g
[1]; ileum tissue, 5 h, average, N = 3, read-out: Ileum Tissue concentration
  concentration at 5 h: 18000 ng/g
[1]; ileum tissue, 7 h, average, N = 3, read-out: Ileum Tissue concentration
  concentration at 7 h: 6490 ng/g
[1]; jejunum lumen content, average, N = 3, read-out: Jejunum Content concentration
  concentration at 0.5 h: 533000 ng/mL
[1]; jejunum lumen content, 1 h, average, N = 3, read-out: Jejunum Content concentration
  concentration at 1 h: 249000 ng/mL
[1]; jejunum lumen content, 2 h, average, N = 3, read-out: Jejunum Content concentration
  concentration at 2 h: 90700 ng/mL
[1]; jejunum lumen content, 3 h, average, N = 3, read-out: Jejunum Content concentration
  concentration at 3 h: 48000 ng/mL
[1]; jejunum lumen content, 5 h, average, N = 3, read-out: Jejunum Content concentration
  concentration at 5 h: 26300 ng/mL
[1]; jejunum lumen content, 7 h, average, N = 3, read-out: Jejunum Content concentration
  concentration at 7 h: 10300 ng/mL
[1]; jejunum lumen content, 24 h, average, N = 3, read-out: Jejunum Content concentration
  concentration at 24 h: 228 ng/mL
[1]; jejunum tissue, average, N = 3, read-out: Jejunum Tissue concentration
  concentration at 0.5 h: 47200 ng/g
[1]; jejunum tissue, 1 h, average, N = 3, read-out: Jejunum Tissue concentration
  concentration at 1 h: 23500 ng/g
[1]; jejunum tissue, 2 h, average, N = 3, read-out: Jejunum Tissue concentration
  concentration at 2 h: 8230 ng/g
[1]; jejunum tissue, 3 h, average, N = 3, read-out: Jejunum Tissue concentration
  concentration at 3 h: 3980 ng/g
[1]; jejunum tissue, 5 h, average, N = 3, read-out: Jejunum Tissue concentration
  concentration at 5 h: 1810 ng/g
[1]; jejunum tissue, 7 h, average, N = 3, read-out: Jejunum Tissue concentration
  concentration at 7 h: 788 ng/g
[1]; jejunum tissue, 24 h, average, N = 3, read-out: Jejunum Tissue concentration
  concentration at 24 h: 27 ng/g
[1]; kidney, average ±SD, read-out: Kidney concentration
  concentration at 0.5 h: 57.9 ± 26.2 ng/g
[1]; kidney, 2 h, average ±SD, read-out: Kidney concentration
  concentration at 2 h: 24.3 ± 6.6 ng/g
[1]; kidney, 3 h, average ±SD, read-out: Kidney concentration
  concentration at 3 h: 30 ± 9.4 ng/g
[1]; kidney, 5 h, average ±SD, read-out: Kidney concentration
  concentration at 5 h: 12.9 ± 3.6 ng/g
[1]; kidney, 7 h, average ±SD, read-out: Kidney concentration
  concentration at 7 h: 19.9 ± 7.8 ng/g
[1]; liver, average ±SD, read-out: Liver concentration
  concentration at 0.5 h: 158 ± 104 ng/g
[1]; liver, 1 h, SD NA, read-out: Liver concentration
  concentration at 1 h: 70.4 ng/g
[1]; liver, 2 h, average ±SD, read-out: Liver concentration
  concentration at 2 h: 49.9 ± 17.5 ng/g
[1]; liver, 3 h, average ±SD, read-out: Liver concentration
  concentration at 3 h: 29.6 ± 14.5 ng/g
[1]; liver, 5 h, average ±SD, read-out: Liver concentration
  concentration at 5 h: 18.7 ± 3 ng/g
[1]; liver, 7 h, average ±SD, read-out: Liver concentration
  concentration at 7 h: 20.7 ± 3 ng/g
[1]; muscle, average ±SD, read-out: Muscle concentration
  concentration at 0.5 h: 16.7 ± 15 ng/g
[1]; plasma, average ±SD, read-out: Plasma concentration
  concentration at 0.5 h: 6.3 ± 1.1 ng/mL
[1]; plasma, 2 h, average ±SD, read-out: Plasma concentration
  concentration at 2 h: 3.7 ± 0.9 ng/mL
[1]; plasma, 3 h, average ±SD, read-out: Plasma concentration
  concentration at 3 h: 3.1 ± 1.1 ng/mL
[1]; plasma, 5 h, average ±SD, read-out: Plasma concentration
  concentration at 5 h: 1.5 ± 0.7 ng/mL
[1]; plasma, 7 h, average ±SD, read-out: Plasma concentration
  concentration at 7 h: 2.1 ± 0.5 ng/mL
JAK2/JAK2
  IC50: 490 nM
